Laboratory results as given in article PMC8713167, “New Insights into the Structure–Activity Relationship and Neuroprotective Profile of Benzodiazepinone Derivatives of Neurounina-1 as Modulators of the Na^+/Ca^2+ Exchanger Isoforms” (Journal of Medicinal Chemistry, 2021).

Columns and labels:
[1] = target: T1, NCX1 (Canis lupus familiaris, UniProt P23685); test: High-throughput screening of NCX1 reverse mode, Fluo-4-loaded BHK-NCX1 cells, Na+-free pulse; type: cell-based, dog; settings: for Fluo-experiments on BHK-NCX1: NCX1 reverse mode, Na+-free, CTL (100), concentration not given (10 nM and 10 μM screened); for Activity on NCX (SAR discussion, in words): NCX1/NCX3 reverse-mode screening
T1 construct: expressed in transfected cells; host or cells: BHK (baby hamster kidney) cells, stably transfected

[2] = target: T2, NCX3 (Rattus norvegicus, UniProt P70549); test: High-throughput screening of NCX3 reverse mode, Fluo-4-loaded BHK-NCX3 cells, Na+-free pulse; type: cell-based; settings: CTL (100), concentration not given (10 nM and 10 μM screened)
T2 construct: expressed in transfected cells; host or cells: BHK (baby hamster kidney) cells, stably transfected
T2 sequence (P70549 31-927): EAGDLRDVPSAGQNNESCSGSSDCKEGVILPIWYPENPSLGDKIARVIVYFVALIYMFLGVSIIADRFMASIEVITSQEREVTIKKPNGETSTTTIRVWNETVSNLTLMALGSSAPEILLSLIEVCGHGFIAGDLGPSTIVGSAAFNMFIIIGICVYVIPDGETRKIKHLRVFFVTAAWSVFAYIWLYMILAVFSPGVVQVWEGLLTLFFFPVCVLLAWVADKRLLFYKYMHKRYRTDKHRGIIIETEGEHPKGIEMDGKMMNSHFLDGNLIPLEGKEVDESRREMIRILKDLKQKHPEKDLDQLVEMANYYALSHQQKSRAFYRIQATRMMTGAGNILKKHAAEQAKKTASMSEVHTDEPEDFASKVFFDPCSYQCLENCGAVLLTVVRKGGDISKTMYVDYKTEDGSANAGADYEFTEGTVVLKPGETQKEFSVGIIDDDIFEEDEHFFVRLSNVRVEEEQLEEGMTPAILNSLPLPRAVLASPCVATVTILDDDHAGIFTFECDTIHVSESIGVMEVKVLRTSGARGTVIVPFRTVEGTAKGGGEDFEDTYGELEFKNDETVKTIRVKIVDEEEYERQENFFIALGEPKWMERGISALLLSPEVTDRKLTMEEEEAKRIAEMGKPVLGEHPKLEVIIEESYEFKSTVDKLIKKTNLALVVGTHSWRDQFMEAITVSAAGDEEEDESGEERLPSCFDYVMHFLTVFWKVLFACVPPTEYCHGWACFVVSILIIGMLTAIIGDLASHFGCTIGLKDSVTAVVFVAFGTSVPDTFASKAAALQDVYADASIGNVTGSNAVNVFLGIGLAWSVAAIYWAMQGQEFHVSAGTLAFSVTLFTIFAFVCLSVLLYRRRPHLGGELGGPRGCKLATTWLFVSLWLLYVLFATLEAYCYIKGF

Row | SMILES | Fluo-experiments on BHK-NCX1 [1] | Fluo-experiments on BHK-NCX3 [2] | Activity on NCX (SAR discussion, in words) [1] | melting point [°C]
1 | Cc1nccn1C(=O)CN1C(=O)CN=C(c2ccccc2)c2cc([N+](=O)[O-])ccc21 [Compound 17, 1-[2-(2-Methyl-1H-imidazole-1-yl)-2-oxoethyl]-7-nitro-5-phenyl-1H-benzo[e][1,4]diazepin-2(3H)-one] | 100 | 100 |  | 
2 | O=C1CN=C(c2ccccc2)c2cc([N+](=O)[O-])ccc2N1CCN1CCCCC1 [Compound 5, 7-Nitro-5-phenyl-1-[2-(piperidin-1-yl)ethyl]-1H-benzo[e][1,4]diazepin-2(3H)-one] | 100 | 100 | inactive | 
3 | O=C(CN1C(=O)CN=C(c2ccccc2)c2cc([N+](=O)[O-])ccc21)N1CCCC1 [Compound 12, 7-Nitro-1-[2-Oxo-2-(pyrrolidin-1-yl)ethyl]-5-phenyl-1H-benzo[e][1,4]diazepin-2(3H)-one] | 100 | 100 |  | 
4 | O=C1CN=C(c2ccccc2)c2cc([N+](=O)[O-])ccc2N1CC(=O)n1ccnc1 [Compound 16, 1-[2-(1H-Imidazole-1-yl)-2-oxoethyl]-7-nitro-5-phenyl-1H-benzo[e][1,4]diazepin-2(3H)-one] | 100 | 100 |  | 120 to 121
5 | CC1CCCN(CCN2C(=O)CN=C(c3ccccc3)c3cc([N+](=O)[O-])ccc32)C1 (stereo not drawn) [Compound 7, 1-[2-(3-Methylpiperidin-1-yl)ethyl]-7-nitro-5-phenyl-1H-benzo[e][1,4]diazepin-2(3H)-one] | 100 | 100 | inactive | 
6 | O=C(CN1C(=O)CN=C(c2ccccc2)c2cc([N+](=O)[O-])ccc21)N1CCN(c2ccccc2)CC1 [Compound 18, 7-Nitro-1-[2-Oxo-2-(4-phenylpiperazin-1-yl)ethyl]-5-phenyl-1H-benzo[e][1,4]diazepin-2(3H)-one] | 100 | 100 |  | 
7 | O=C1CN=C(c2ccccc2)c2cc([N+](=O)[O-])ccc2N1CCN1CCN(c2cccc3ccccc23)CC1 [Compound 11, 1-{2-[4-(Naphthalen-1-yl)piperazin-1-yl]ethyl}-7-nitro-5-phenyl-1H-benzo[e][1,4]diazepin-2(3H)-one] | 100 | 100 |  | 
8 | O=C1CN=C(c2ccccc2)c2cc(Cl)ccc2N1CN1CCCC1 [Compound 2, 7-Chloro-5-phenyl-1-(pyrrolidin-1-ylmethyl)-1H-benzo[e][1,4]diazepin-2(3H)-one] | 100 | 100 | inactivity | 
9 | CC1CCCCN1CCN1C(=O)CN=C(c2ccccc2)c2cc([N+](=O)[O-])ccc21 (stereo not drawn) [Compound 6, 1-[2-(2-Methylpiperidin-1-yl)ethyl]-7-nitro-5-phenyl-1H-benzo[e][1,4]diazepin-2(3H)-one] | 100 | 100 | inactive | 
10 | O=C1CN=C(c2ccccc2)c2cc([N+](=O)[O-])ccc2N1CCN1CCN(c2ccccc2)CC1 [Compound 10, 7-Nitro-5-phenyl-1-[2-(4-phenylpiperazin-1-yl)ethyl]-1H-benzo[e][1,4]diazepin-2(3H)-one] | 100 | 100 |  | 
11 | O=C(CN1C(=O)CN=C(c2ccccc2)c2cc([N+](=O)[O-])ccc21)N1CCCCC1 [Compound 13, 7-Nitro-1-[2-Oxo-2-(piperidin-1-yl)ethyl]-5-phenyl-1H-benzo[e][1,4]diazepin-2(3H)-one] | 100 | 100 |  | 
12 | O=C1CN=C(c2ccccc2)c2cc([N+](=O)[O-])ccc2N1CCn1ccnc1 [Compound 8, 1-[2-(1H-Imidazole-1-yl)ethyl]-7-nitro-5-phenyl-1H-benzo[e][1,4]diazepin-2(3H)-one] | 100 | 100 | complete loss of activity | 
13 | O=C(CN1C(=O)CN=C(c2ccccc2)c2cc([N+](=O)[O-])ccc21)N1CCN(c2cccc3ccccc23)CC1 [Compound 19, 1-{2-[4-(Naphthalen-1-yl)piperazin-1-yl]-2-oxoethyl}-7-nitro-5-phenyl-1H-benzo[e][1,4]-diazepin-2(3H)-one] | 100 | 100 |  | 
14 | CC1CCCN(C(=O)CN2C(=O)CN=C(c3ccccc3)c3cc([N+](=O)[O-])ccc32)C1 (stereo not drawn) [Compound 15, 1-3-[(3-Methylpiperidin-1-yl)-2-oxoethyl]-7-nitro-5-phenyl-1H-benzo[e][1,4]-diazepin-2(3H)-one] | 100 | 100 |  | 
15 | O=C1CN=C(c2ccccc2)c2cc([N+](=O)[O-])ccc2N1CN1CCCCC1 [Compound 3, 7-Nitro-5-phenyl-1-(piperidin-1-ylmethyl)-1H-benzo[e][1,4]diazepin-2(3H)-one] | 100 | 100 | complete loss of activity | 
16 | Cc1nccn1CCN1C(=O)CN=C(c2ccccc2)c2cc([N+](=O)[O-])ccc21 [Compound 9, 1-[2-(2-Methyl-1H-imidazole-1-yl)ethyl]-7-nitro-5-phenyl-1H-benzo[e][1,4]diazepin-2(3H)-one] | 100 | 100 |  | 
